Our source for the AUC values is ChEMBL document CHEMBL4834488, “Improved Synthesis of New FDA-Approved Treatment for KRAS G12C Mutation in Non-small Cell Lung Cancer” (ACS Med Chem Lett, 2021).

A short description of this series: AUC in non-small-cell lung cancer/colorectal cancer patient serum at 960 mg, po. The format is ADME, cell-free. The arrangement: dose 960 mg. As to conditions: human.

Each structure is given as a SMILES string.

In general, AUC refers to the area under the concentration-time curve, a measure of exposure. In turn, `C=CC(=O)N1CCN(c2nc(=O)n(-c3c(C)ccnc3C(C)C)c3nc(-c4c(O)cccc4F)c(F)cc23)[C@@H](C)C1` [SOTORASIB] had an AUC of 65300 ng·h/mL.
